Data on two compounds can be found in PMC4232510, “Identification of Functionally Important Residues of the Rat P2X4 Receptor by Alanine Scanning Mutagenesis of the Dorsal Fin and Left Flipper Domains” (PLoS ONE, 2014).

The structures appear in SMILES notation. Numbering of substitutions follows the chain as printed.

In test [1] the target is T1, rP2X4R D283A mutant (Rattus norvegicus, UniProt P51577, D283A).
T1 construct: expressed in transfected cells; host or cells: HEK293T
T1 sequence (P51577 1-388 D283A): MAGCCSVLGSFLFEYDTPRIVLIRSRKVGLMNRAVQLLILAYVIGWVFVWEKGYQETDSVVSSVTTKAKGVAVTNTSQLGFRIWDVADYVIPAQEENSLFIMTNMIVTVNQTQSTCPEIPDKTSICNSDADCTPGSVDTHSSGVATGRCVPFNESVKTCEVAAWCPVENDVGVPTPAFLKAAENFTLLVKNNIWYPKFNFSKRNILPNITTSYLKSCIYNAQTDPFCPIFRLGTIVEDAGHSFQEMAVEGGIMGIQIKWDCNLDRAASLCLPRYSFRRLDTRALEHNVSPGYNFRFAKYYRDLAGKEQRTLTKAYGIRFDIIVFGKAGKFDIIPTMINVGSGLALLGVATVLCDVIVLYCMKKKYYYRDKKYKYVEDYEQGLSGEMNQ
The test can be described thus: whole-cell patch clamp, HEK293T cells expressing mutant. The test is classed as cell-based.

Test [2] concerns the target T2, rP2X4R S289A mutant (Rattus norvegicus, UniProt P51577, S289A).
T2 construct: expressed in transfected cells; host or cells: HEK293T
T2 sequence (P51577 1-388 S289A): T1 sequence (P51577 1-388 D283A) with A283D, S289A
The description is as above. It counts as cell-based.

[3] abbreviates: 100 µM ATP 60 s, biexponential fit.
Setting [4] is: contribution of τdes2, 100 µM ATP 60 s.
Setting [5] is: decay after removal of 1 or 3 µM ATP, 3 µM IVM.
[6] abbreviates: naïve receptors, 2–5 s application.
The mark [7] stands for this setting: 3 µM IVM 4-6 min vs IVM-untreated.

As to `Nc1ncnc2c1ncn2[C@@H]1O[C@H](COP(=O)(O)OP(=O)(O)OP(=O)(O)O)[C@@H](O)[C@H]1O` [ATP], the τdes1 in test [1] (setting [3]) came to 2.2 ± 0.6 s; in test [2] (setting [3]), 0.9 ± 0.3 s. Moreover, the τdes2 in test [1] (setting [3]) is 17.1 ± 5.8 s; in test [2] (setting [3]) it was 11.3 ± 0.6 s. The results for the Imax in test [1] (100–1000 µM ATP) and in test [2] (100–1000 µM ATP) were 2.2 ± 0.3 nA and 1.4 ± 0.2 nA, respectively. For the same compound, the “Imax+IVM” value in test [1] (ATP after 3 µM IVM 4-6 min) was determined as 3.1 ± 0.3 nA; in test [2] (ATP after 3 µM IVM 4-6 min), 4.5 ± 1.1 nA. The “A2 /(A1+A2)” value in test [1] (setting [4]) was 59 ± 10%; in test [2] (setting [4]), 56 ± 7%. Also, the figures for the “τoff +IVM” value in test [1] (setting [5]) and in test [2] (setting [5]) were 16 ± 1.7 s and 15 ± 1.1 s, respectively. The EC50 was determined as 7.3 ± 3.4 µM in test [1] (setting [6]) and 3.6 ± 1.9 µM in test [2] (setting [6]). In addition, the τdes in test [1] (weighted, 100 µM ATP 60 s) is listed as 9.1 ± 1.5 s; in test [2] (weighted, 100 µM ATP 60 s), 6.8 ± 1.0 s.
As to `CC[C@H](C)[C@H]1O[C@]2(CC[C@@H]1C)C[C@@H]1C[C@@H](C/C=C(\C)[C@@H](O[C@H]3C[C@H](OC)[C@@H](O[C@H]4C[C@H](OC)[C@@H](O)[C@H](C)O4)[C@H](C)O3)[C@@H](C)/C=C/C=C3\CO[C@@H]4[C@H](O)C(C)=C[C@@H](C(=O)O1)[C@]34O)O2` [IVM, ivermectin], the “Fold incr. Imax” value is 1.4 ± 0.1 fold in test [1] (setting [7]) and 3.2 ± 0.2 fold in test [2] (setting [7]).
